Data taken from patent publication US10435364B2, “Compounds for use as bromodomain inhibitors” (Albert Ludwigs Universität Freiburg, priority 2013, dated 2019).
Where two headings read alike, the source gives them in different places.

Key:
[1] = target: T1, BRD4-BD1 (Homo sapiens, UniProt O60885); experiment: Isothermal titration calorimetry (ITC), dissociation constant; assay type: binding
T1 construct: BRD4-BD1 was expressed and purified as described previously; made in house
Description: Data were obtained in discrete titration experiments with an injection volume of 12 μl per injection. Subsequently, the heats per injection were calculated as integrals and after normalization against the molar concentrations plotted against the molar ratio as implemented in Microcal Origin. Finally, data were fitted according to a single set of sites binding model with
[formula] as function to calculate the overall sum of heat of the titration and with
[formula] […] A correction term was included to compensate for displacement of volume of the sample cell in the course of subsequent injections according to the manufacturer's manual “ITC Data Analysis in Origin” (Microcal).
The dissociation constant has molar units which correspond to the concentration of ligand at which the binding site on a particular protein is half occupied, i.e. the concentration of the ligand at which the concentration of protein with ligand bound equals the concentration of protein with no ligand bound. The smaller the dissociation constant, the higher the affinity between ligand and protein.

[2] = test system: HeLa; experiment: Antiproliferative activity, HeLa cells; assay type: cell-based; details: at a high concentration of 50 μM
Description: BRD4 is a validated therapeutic target in NUT midline carcinoma and in acute myeloid and MLL-fusion leukaemia. The proliferation inhibition potential of the virtual screening hits in HL-60 and HeLa cell lines for the compound of formula (4) was assessed.

[3] = test system: leukaemia cell lines; experiment: NCI-60 DTP Human Tumour Cell Line Screen, leukaemia panel; assay type: cell-based; details: NCI-60 screen, 10 μM
[4] = test system: HL-60(TB); experiment: NCI-60 DTP Human Tumour Cell Line Screen; assay type: cell-based; details: NCI-60 screen, 10 μM, leukaemia panel
[5] = test system: SR; experiment: NCI-60 DTP Human Tumour Cell Line Screen; assay type: cell-based; details: NCI-60 screen, 10 μM, leukaemia panel
[6] = test system: OVCAR-5; experiment: NCI-60 DTP Human Tumour Cell Line Screen; assay type: cell-based; details: NCI-60 screen, 10 μM, ovarian cancer
[7] = test system: COLO 205; experiment: NCI-60 DTP Human Tumour Cell Line Screen; assay type: cell-based; details: NCI-60 screen, 10 μM, colon cancer
[8] = test system: mice (male and female); experiment: Toxicity screening, single dose; assay type: in vivo
Excerpt: […]. All studied organs and tissues had the structure characteristics and relative body weights for normal animals.

[9] = test system: T2, BET bromodomain family; experiment: BROMOscan selectivity profile; assay type: binding, human
T2 construct: other: BROMOscan
Description: (§1) Bromodomain profiling was carried out on the basis of BROMOscan™. This platform accounted for the indirect determination of the dissociation constants between 19 bromodomains and the compound of formula (4), by binding competition against a reference immobilized ligand.
(§2) The target selectivity of the compound of formula (4) within the human BRD family was assessed by means of BROMOscan™. The binding of the compound to at least one representative protein of each BRD family was assessed.
Sphere size and colour indicate the binding affinity of the compound of formula (4) to the specific BRDs, as observed in the BROMOscan™ assay. Additionally, binding to PB1-BD4 was assessed by local ITC measurements. The dissociation constant (Kd) corresponding to each BRD in complex with the compound of formula (4) is indicated. […]

[10] = target: T3, BRD2(1) (Homo sapiens, UniProt P25440); experiment: BROMOscan; assay type: binding; details: BROMOscan
T3 construct: T7 phage strains displaying bromodomains; host or cells: T7 phage display in E. coli host derived from BL21

[11] = target: T4, BRD3(1) (Homo sapiens, UniProt Q15059); experiment: BROMOscan; assay type: binding; details: BROMOscan
T4 construct: T7 phage strains displaying bromodomains; host or cells: T7 phage display in E. coli host derived from BL21

[12] = target: T5, BRD3(2) (Homo sapiens, UniProt Q15059); experiment: BROMOscan; assay type: binding; details: BROMOscan
T5 construct: T7 phage strains displaying bromodomains; host or cells: T7 phage display in E. coli host derived from BL21

[13] = target: T6, BRD4(1) (Homo sapiens, UniProt O60885); experiment: BROMOscan; assay type: binding; details: BROMOscan, n=2; read-out: dissociation constant (Kd) in complex with BRD4-BD1
T6 construct: T7 phage strains displaying bromodomains; host or cells: T7 phage display in E. coli host derived from BL21

[14] = target: T7, CREBBP (Homo sapiens, UniProt Q92793); experiment: BROMOscan; assay type: binding; details: BROMOscan; read-out: binding affinity to CREBBP
T7 construct: T7 phage strains displaying bromodomains; host or cells: T7 phage display in E. coli host derived from BL21
Description: as §1, §2
(§3) Bromodomain profiling was carried out on the basis of BROMOscan™, which is a leading platform for identifying small molecule bromodomain inhibitors. BROMOscan™ employs a proprietary ligand binding site-directed competition assay to quantitatively measure interactions between test compounds and bromodomains. The reliable assay panel is suitable for high-throughput screening and delivers quantitative ligand binding data.
(§4) Compounds that bind the bromodomain prevent its binding to the immobilized ligand thus reducing the amount of protein captured. […] Hits are identified by measuring the amount of bromodomain captured in test versus control samples.
(§5) Bromodomain assays: T7 phage strains displaying bromodomains were grown in parallel in 24-well blocks in an E. coli host derived from the BL21 strain. E. coli were grown to log-phase and infected with T7 phage from a frozen stock (multiplicity of infection=0.4) and incubated with shaking at 32° C. until lysis (90-150 minutes). The lysates were centrifuged (5,000×g) and filtered (0.2 μm) to remove cell debris. […] The bound beads were blocked with excess biotin and washed with blocking buffer (SeaBlock (Pierce), 1% BSA, 0.05% Tween 20, 1 mM DTT) to remove unbound ligand and to reduce non-specific phage binding. […] Test compounds were prepared as 1000× stocks in 100% DMSO and subsequently diluted 1:25 in mono ethylene glycol (MEG). The compounds were then diluted directly into the assays such that the final concentrations of DMSO and MEG were 0.1% and 2.4%, respectively. All reactions were performed in polypropylene 384-well plates in a final volume of 0.02 ml. […] The bromodomain concentration in the eluates was measured by qPCR.
(§6) The % Ctrl values were determined as follows: % Ctrl=[(test compound signal-positive control signal)/(negative control signal-positive control signal)]×100
(§7) For 7 bromodomains other than the bromodomains from the BET family dissociation constants Kd were determined and the results are given in Table 3.

[15] = target: T8, EP300 (Homo sapiens, UniProt Q09472); experiment: BROMOscan; assay type: binding; details: BROMOscan; read-out: binding affinity to EP300
T8 construct: T7 phage strains displaying bromodomains; host or cells: T7 phage display in E. coli host derived from BL21
T8 sequence (Q09472 1049-1156 limits assumed): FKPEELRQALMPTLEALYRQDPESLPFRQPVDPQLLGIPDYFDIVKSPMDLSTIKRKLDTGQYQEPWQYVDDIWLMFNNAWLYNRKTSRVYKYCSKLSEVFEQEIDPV
Description: as §1, §2, §3, §4, §5, §6, §7

T7 sequence (Q92793 1085-1192 limits assumed): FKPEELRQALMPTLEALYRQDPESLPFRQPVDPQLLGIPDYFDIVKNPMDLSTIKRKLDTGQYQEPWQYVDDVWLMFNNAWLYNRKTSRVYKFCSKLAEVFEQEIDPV
T5 sequence (Q15059 306-415 limits assumed): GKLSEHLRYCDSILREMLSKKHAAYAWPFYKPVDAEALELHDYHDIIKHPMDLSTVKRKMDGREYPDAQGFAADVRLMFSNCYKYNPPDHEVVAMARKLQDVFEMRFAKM
T3 sequence (P25440 74-180 limits assumed): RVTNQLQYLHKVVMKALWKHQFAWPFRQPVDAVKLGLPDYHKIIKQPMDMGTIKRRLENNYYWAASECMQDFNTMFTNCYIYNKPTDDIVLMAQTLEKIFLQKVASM
T4 sequence (Q15059 34-140 limits assumed): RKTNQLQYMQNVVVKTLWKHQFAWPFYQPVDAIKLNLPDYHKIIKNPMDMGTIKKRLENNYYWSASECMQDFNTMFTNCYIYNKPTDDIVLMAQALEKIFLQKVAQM

CCc1c(C(=O)Nc2cc(S(=O)(=O)N(CC)CC)ccc2O)[nH]c(C)c1C(C)=O [compound of formula (4)]
Kd ([1]; ITC, 25° C., read-out: dissociation constant Kd for BRD4-BD1): 300 nM | Kd ([1]; Table 1, target not given, values of formula (4) and (3) match ITC Kd for BRD4-BD1, read-out: pKd (converted)): 316 nM | antiproliferative activity against HeLa [2]: no antiproliferative activity | activity against the leukaemia cell lines [3]: potent and selective activity | sensitivity in the cell line screen (growth inhibition) [4]: most sensitive | sensitivity in the cell line screen (growth inhibition) [5]: most sensitive | sensitivity in the cell line screen (growth inhibition) [6]: most resistant | sensitivity in the cell line screen (growth inhibition) [7]: most resistant | LD50 ([8]; mice (male and female), single dose): higher than 2000 mg/kg of body weight | signs of toxicity ([8]; mouse, in vivo, 2000 mg/kg): did not induce any signs of toxicity | binding specificity within the human BRD family [9]: bind specifically to the BET bromodomain family | affinity to BRD2-BD1 [10]: nM range | affinity to BRD3 (both BRDs), BD1 [11]: nM range | affinity to BRD3 (both BRDs), BD2 [12]: nM range | Kd [13]: 160 nM | Kd [14]: ~3500 nM | Kd [15]: ~3500 nM
